Results reported in the supplement of paper PMC8967900.

Assays:
Experiment in all cases: selective drug sensitivity score (sDSS, relative to normal bone marrow) (sDSS (score)); higher = more potent and effective on the cell line relative to normal bone marrow cells
Conditions in all cases: 72 h
[1] = tested on: NALL-1
[2] = tested on: KARPAS-45
[3] = tested on: PF-382
[4] = tested on: COG-LL-402h
[5] = tested on: ALL-SIL
[6] = tested on: RCH-ACV
[7] = tested on: SUP-B15
[8] = tested on: MN-60
[9] = tested on: JURKAT
[10] = tested on: DND-41
[11] = tested on: MOLT-4
[12] = tested on: P30-OHKUBO
[13] = tested on: LC4-1
[14] = tested on: CCRF-HSB2
[15] = tested on: KASUMI-2
[16] = tested on: RPMI-8402
[17] = tested on: SEM cells
[18] = tested on: HPB-ALL
[19] = tested on: KASUMI-10
[20] = tested on: MHH-CALL-2
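Note: ALL cell lines in 384-well plates, five doses spanning 10,000-fold, each plate scaled between vehicle and 100 µmol/L benzalkonium chloride controls, sDSS an adapted area-under-curve metric.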

Row | Compound | selective drug sensitivity score [1] | selective drug sensitivity score [2] | selective drug sensitivity score [3] | selective drug sensitivity score [4] | selective drug sensitivity score [5] | selective drug sensitivity score [6] | selective drug sensitivity score [7] | selective drug sensitivity score [8] | selective drug sensitivity score [9] | selective drug sensitivity score [10] | selective drug sensitivity score [11] | selective drug sensitivity score [12] | selective drug sensitivity score [13] | selective drug sensitivity score [14] | selective drug sensitivity score [15] | selective drug sensitivity score [16] | selective drug sensitivity score [17] | selective drug sensitivity score [18] | selective drug sensitivity score [19] | selective drug sensitivity score [20]
1 | O=C(c1cccc(Cl)c1F)N1CCN(Cc2cccc(Nc3nccs3)n2)CC1 [MK-8745] (top concentration 10000 nM) | 12.4 | 23.8 | 8.5 | 14.1 | 11.8 | 9.7 | 18.3 | 1.6 | 9.8 | 5.5 | 11.8 | 9.1 | 11.5 | 14.1 | 6.8 | 9.4 | 18.3 | 7 | 11.2 | 12.2
2 | Cc1ccc(NC(=O)c2ccc(CN3CCN(C)CC3)cc2)cc1Nc1nc(-c2cccnc2)cs1 [Masitinib] (top concentration 10000 nM) | -4.38 | 3.22 | 1.42 | -1.48 | 11.6 | 0.02 | 7.52 | -1.58 | 0.92 | -0.28 | -0.38 | 1.22 | -2.18 | 6.02 | -4.38 | 1.82 | 0.22 | -4.18 | -3.48 | -1.68
3 | CCN(CC)CCCC(C)Nc1c2ccc(Cl)cc2nc2ccc(OC)cc12 (stereo not given) [Mepacrine] (top concentration 50000 nM) | -10 | -0.8 | -4.6 | 2.7 | -7.3 | -4.5 | -1.1 | -5.7 | -7.7 | -5.1 | -0.6 | -0.3 | -4 | -4.8 | -9.5 | -7.1 | -0.1 | -6.8 | 0.6 | -5.6
4 | COc1ccc(-c2ccc3ncc4c(c3c2)n(-c2ccc(N3CCNCC3)c(C(F)(F)F)c2)c(=O)n4C)cn1 [NVP-BGT226] (top concentration 1000 nM) | -2.88 | 3.42 | 6.02 | 5.92 | 2.82 | 20.1 | 10.2 | 5.72 | 2.82 | 2.12 | 5.42 | 12.2 | 2.22 | 5.82 | 7.92 | 4.42 | 6.82 | -0.18 | -0.18 | 3.92
5 | COc1nc(N)nc2c1ncn2[C@@H]1O[C@H](CO)[C@@H](O)[C@@H]1O [Nelarabine] (top concentration 10000 nM) | -10.2 | -9.92 | -1.62 | -2.32 | -2.82 | 1.98 | 5.78 | -10.2 | -0.12 | 8.98 | -0.72 | -1.82 | -7.22 | 1.88 | -10.2 | 2.68 | -10.2 | -2.22 | -5.82 | -4.22
6 | Cc1cn(-c2cc(NC(=O)c3ccc(C)c(Nc4nccc(-c5cccnc5)n4)c3)cc(C(F)(F)F)c2)cn1 [Nilotinib] (top concentration 10000 nM) | 5.8 | 4.2 | 2.7 | 0 | 43.3 | 8.3 | 31.6 | 0 | 1.1 | 2.8 | 3.6 | 2.5 | 9.1 | 12.9 | 4.1 | 1.8 | 4.9 | 0 | 0 | 8.9
7 | NC(=O)c1cccc2cn(-c3ccc(C4CCCNC4)cc3)nc12 (stereo not given) [Niraparib] (top concentration 10000 nM) | 4.08 | -0.62 | -2.12 | 8.48 | 2.88 | 6.48 | 17.2 | -3.02 | 0.38 | 2.78 | 3.58 | 5.98 | 3.38 | 5.78 | 4.28 | 1.98 | 2.98 | -3.32 | 1.58 | 3.78
8 | COc1ccc(C[C@H](NC(=O)[C@H](C)NC(=O)CN2CCOCC2)C(=O)N[C@@H](Cc2ccccc2)C(=O)[C@@]2(C)CO2)cc1 [ONX-0914] (top concentration 10000 nM) | 9.8 | 1.8 | 6.5 | 2 | 3.8 | -4.4 | 11.5 | -2.9 | -4.4 | 11.7 | 1.9 | -1.8 | -1.2 | 9.9 | 0.6 | -3.1 | 7.2 | -2.4 | 0.9 | 0.5
9 | CC(=O)c1cnc2ccc(-c3cc(Cl)c(O)c(Cl)c3)nc2c1N[C@H]1CC[C@H](CN(C)C)CC1 [OTS167] (top concentration 1000 nM) | -8.72 | 0.58 | -2.62 | 7.08 | 2.08 | 8.28 | 2.98 | -1.82 | -3.52 | -1.12 | -1.32 | 0.98 | -3.42 | 13.2 | 4.58 | 0.28 | 0.58 | -0.42 | 5.88 | 3.18
